Our source for the fold induction values is patent US10766869B2, “Triazoles for the treatment of demyelinating dieases” (Vertex Pharmaceuticals Incorporated, priority 2015, dated 2020).

SMILES strings stand for the structures. Like-named read-outs stand apart in the source and are kept apart here.

The test system of this assay is primary rat mixed cortical cells. The assay is described as follows: In vitro myelination assay (MBP positive myelin strands, fold myelin pixels above background). It counts as cell-based. The note with it: Rattus norvegicus; for fold induction at 1 µM: 1.0 μM compound; for fold induction at 10 µM: 10.0 μM compound. A digest of the protocol: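 P1 rat mixed cortical cultures (neurons, OPCs, oligodendrocytes, astrocytes, microglia) grown 14 days at 37 °C with compound, half-medium refreshed with compound on days 6 and 10. Fixed cells stained for MBP; MBP-positive myelin strand pixels per well quantified by automated imaging, reported as fold over no-compound baseline at 1.0 and 10.0 μM.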

[1] abbreviates: read-out: Fold myelin pixels above background relative to baseline of no added compound.
[2] abbreviates: relative to baseline of no added compound, read-out: Fold myelin pixels above background, 1.0 μM.
Where [3] appears, read: relative to baseline of no added compound, read-out: Fold myelin pixels above background, 10.0 μM.
The mark [4] stands for this setting: relative to baseline of no added compound, read-out: Fold myelin pixels above background.

With `Cc1cc(Nc2ncn(-c3cc(F)cc(F)c3)n2)cc(NC2CCOC3(CCOC3)C2)c1` (centres unmarked) [Compound 1048, N3-[1-(3,5-difluorophenyl)-1,2,4-triazol-3-yl]-N1-(2,6-dioxaspiro[4.5]decan-9-yl)-5-methyl-benzene-1,3-diamine], under setting [1], the fold induction at 1 µM is 10 to 100 and the fold induction at 10 µM was at most 1.

`CC(=O)N1CCCN(c2cc(C)cc(Nc3ncn(-c4ccccc4)n3)c2)CC1` [Compound 280, 1-[4-[3-methyl-5-[(1-phenyl-1,2,4-triazol-3-yl)amino]phenyl]-1,4-diazepan-1-yl]ethanone]: the fold induction at 1 µM under setting [2] is 1000 to 10000. For the same compound, the fold induction at 10 µM under setting [3] fell in the range of 10 to 100.

Regarding `Fc1cc(F)cc(-n2cnc(Nc3cc(N4CC(N5CCOCC5)C4)cc(Cl)n3)n2)c1` [Compound 660, 6-chloro-N-[1-(3,5-difluorophenyl)-1,2,4-triazol-3-yl]-4-(3-morpholinoazetidin-1-yl)pyridin-2-amine], under setting [4], the fold induction at 1 µM was at most 1 and the fold induction at 10 µM is at most 1.

As to `Cc1cc(Nc2ncn(-c3cc(F)cc(F)c3)n2)cc(NC2CN(C3COC3)C2)c1` [Compound 881, N3-[1-(3,5-difluorophenyl)-1,2,4-triazol-3-yl]-5-methyl-N1-[1-(oxetan-3-yl)azetidin-3-yl]benzene-1,3-diamine], under setting [1], the fold induction at 1 µM was in the range of 10 to 100 and the fold induction at 10 µM is at most 1.

For `Cc1cc(Nc2ncn(-c3ccc(F)c(F)c3)n2)cc(O[C@@H]2CCCN(C3COC3)C2)c1` (single isomer, unassigned) [Compound 665], under setting [4], the fold induction at 1 µM lay within 10 to 100 and the fold induction at 10 µM lay within 1 to 10.

For `Cc1cc(OCC(=O)N2CCCC2)cc(Nc2ncn(-c3cc(F)cc(F)c3)n2)c1C` [Compound 965, 2-[3-[[1-(3,5-difluorophenyl)-1,2,4-triazol-3-yl]amino]-4,5-dimethyl-phenoxy]-1-pyrrolidin-1-yl-ethanone], under setting [1], the fold induction at 1 µM was 10 to 100 and the fold induction at 10 µM fell in the range of 10 to 100.

For `COc1ccc(-n2cnc(Nc3cc(C4CC4)nc(N4CCOCC4)c3)n2)cc1OC` [Compound 354, 2-cyclopropyl-N-[1-(3,4-dimethoxyphenyl)-1,2,4-triazol-3-yl]-6-morpholino-pyridin-4-amine], the fold induction at 1 µM under setting [2] is 1 to 10. Also, the fold induction at 10 µM under setting [3] fell in the range of 100 to 1000.

As to `COc1cc(-n2cnc(Nc3cc(C4CC4)cc(N4CCN(C5COC5)CC4)c3)n2)ncn1` [Compound 377, N-[3-cyclopropyl-5-[4-(oxetan-3-yl)piperazin-1-yl]phenyl]-1-(6-methoxypyrimidin-4-yl)-1,2,4-triazol-3-amine], the fold induction at 1 µM under setting [2] fell in the range of 100 to 1000. Under setting [3], the fold induction at 10 µM fell in the range of 10 to 100.

As for `CC(C)c1cc(Nc2ncn(-c3cnccn3)n2)cc(N2CCN(C3COC3)CC2)c1` [Compound 536, N-[3-isopropyl-5-[4-(oxetan-3-yl)piperazin-1-yl]phenyl]-1-pyrazin-2-yl-1,2,4-triazol-3-amine], under setting [4], the fold induction at 1 µM is 100 to 1000 and the fold induction at 10 µM lay in the range of 100 to 1000.

On to `Cc1cc(Nc2ncn(-c3cc(F)cc(F)c3)n2)cc(N2CCC(N3CCCC(O)C3)CC2)c1` (centres unmarked) [Compound 1054, 1-[1-[3-[[1-(3,5-difluorophenyl)-1,2,4-triazol-3-yl]amino]-5-methyl-phenyl]-4-piperidyl]piperidin-3-ol], for which, under setting [1], the fold induction at 1 µM is at most 1 and the fold induction at 10 µM was at most 1.

Turning to `Cc1cc(Nc2ncn(-c3ccc(F)c(F)c3)n2)cc(NC2CCN(C3COC3)C2)c1` (centres unmarked) [Compound 113, N3-[1-(3,4-difluorophenyl)-1,2,4-triazol-3-yl]-5-methyl-N1-[1-(oxetan-3-yl)pyrrolidin-3-yl]benzene-1,3-diamine], under setting [2], the fold induction at 1 µM is 1000 to 10000. Under setting [3], the fold induction at 10 µM was at most 1.

For the compound `Cc1cc(Nc2ncn(-c3cc(F)cc(F)c3)n2)cc(N2CC3(C2)CN(C(C)C)C3)c1` [Compound 1081, 1-(3,5-difluorophenyl)-N-[3-(2-isopropyl-2,6-diazaspiro[3.3]heptan-6-yl)-5-methyl-phenyl]-1,2,4-triazol-3-amine], under setting [1], the fold induction at 1 µM lay within 1 to 10 and the fold induction at 10 µM is 1 to 10.

Regarding `Cc1cc(Nc2ncn(-c3cc(F)cc(F)c3)n2)cc(N2CC(N3CCCC3)C2)c1` [Compound 510, 1-(3,5-difluorophenyl)-N-[3-methyl-5-(3-pyrrolidin-1-ylazetidin-1-yl)phenyl]-1,2,4-triazol-3-amine], under setting [4], the fold induction at 1 µM lay within 1 to 10 and the fold induction at 10 µM was in the range of 10 to 100.

Take `Fc1cc(Nc2ncn(-c3cccc(F)c3)n2)cc(C2CCN(C3COC3)C2)c1` (centres unmarked) [Compound 230, N-[3-fluoro-5-[1-(oxetan-3-yl)pyrrolidin-3-yl]phenyl]-1-(3-fluorophenyl)-1,2,4-triazol-3-amine]: the fold induction at 1 µM under setting [2] was 1000 to 10000. Moreover, under setting [3], the fold induction at 10 µM was at most 1.

As for `Cc1cc(Nc2ncn(-c3ccccc3)n2)cc(C2CCCN(C)C2)c1` (centres unmarked) [Compound 60, N-[3-methyl-5-(1-methyl-3-piperidyl)phenyl]-1-phenyl-1,2,4-triazol-3-amine], the fold induction at 1 µM under setting [2] lay in the range of 1000 to 10000. The fold induction at 10 µM under setting [3] is at most 1.

Turning to `Fc1ccc(-n2cnc(Nc3cc(F)cc(N4CCOCC4)c3)n2)cc1` [Compound 394, N-(3-fluoro-5-morpholino-phenyl)-1-(4-fluorophenyl)-1,2,4-triazol-3-amine], under setting [4], the fold induction at 1 µM fell in the range of 1 to 10 and the fold induction at 10 µM is at most 1.

Consider `Cc1cc(Nc2ncn(-c3cc(F)cc(F)c3)n2)cc(N2CCOCC2)c1` [Compound 374, 1-(3,5-difluorophenyl)-N-(3-methyl-5-morpholino-phenyl)-1,2,4-triazol-3-amine], for which the fold induction at 1 µM under setting [2] lay within 100 to 1000. The fold induction at 10 µM under setting [3] is 100 to 1000.

`Cc1cc(Nc2ncn(-c3cccnc3)n2)cc(N2CCN(C3COC3)CC2)c1` [Compound 275, N-[3-methyl-5-[4-(oxetan-3-yl)piperazin-1-yl]phenyl]-1-(3-pyridyl)-1,2,4-triazol-3-amine]: under setting [2], the fold induction at 1 µM was in the range of 10 to 100. In addition, under setting [3], the fold induction at 10 µM was 100 to 1000.

Consider `CCC1COCCN1CCNc1cc(C)cc(Nc2ncn(-c3cc(F)cc(F)c3)n2)c1` (centres unmarked) [Compound 872, N3-[1-(3,5-difluorophenyl)-1,2,4-triazol-3-yl]-N1-[2-(3-ethylmorpholin-4-yl)ethyl]-5-methyl-benzene-1,3-diamine], for which, under setting [1], the fold induction at 1 µM was in the range of 10 to 100 and the fold induction at 10 µM is at most 1.

For `Cc1cc(Nc2ncn(-c3cc(F)cc(F)c3)n2)cc(N2CCC(N(C)C)CC2)c1` [Compound 948, 1-[3-[[1-(3,5-difluorophenyl)-1,2,4-triazol-3-yl]amino]-5-methyl-phenyl]-N,N-dimethyl-piperidin-4-amine], under setting [1], the fold induction at 1 µM was in the range of 10 to 100 and the fold induction at 10 µM was at most 1.

In the case of `NC1CN(c2cc(F)cc(Nc3ncn(-c4ccc(F)cc4F)n3)c2)C1` [Compound 283, N-[3-(3-aminoazetidin-1-yl)-5-fluoro-phenyl]-1-(2,4-difluorophenyl)-1,2,4-triazol-3-amine], the fold induction at 1 µM under setting [2] was at most 1. Besides, the fold induction at 10 µM under setting [3] is at most 1.

Consider `CC(F)(F)c1cc(Nc2ncn(-c3cccc(F)c3)n2)nc(N2CCN(C3COC3)CC2)c1` [Compound 860, 4-(1,1-difluoroethyl)-N-[1-(3-fluorophenyl)-1,2,4-triazol-3-yl]-6-[4-(oxetan-3-yl)piperazin-1-yl]pyridin-2-amine], for which, under setting [1], the fold induction at 1 µM is 10 to 100 and the fold induction at 10 µM was 1 to 10.
